Measurements reported in ChEMBL document CHEMBL1130398 (J Med Chem, 1997).

Legend:
Cholinesterase [1] = target: T1, Cholinesterase (Homo sapiens, UniProt P06276)
Description: In vitro inhibition of Butyrylcholinesterase from human plasma.

[2] = target: Norepinephrine transporter (Rattus norvegicus, UniProt Q9WTR4)
Description: Inhibition of neuronal uptake of Noradrenaline in rat brain homogenate

[3] = target: Sodium-dependent serotonin transporter (Rattus norvegicus, UniProt P31652)
Acetylcholinesterase [4] = target: T2, Acetylcholinesterase (Rattus norvegicus, UniProt P37136)
T2 sequence (P37136 whole entry): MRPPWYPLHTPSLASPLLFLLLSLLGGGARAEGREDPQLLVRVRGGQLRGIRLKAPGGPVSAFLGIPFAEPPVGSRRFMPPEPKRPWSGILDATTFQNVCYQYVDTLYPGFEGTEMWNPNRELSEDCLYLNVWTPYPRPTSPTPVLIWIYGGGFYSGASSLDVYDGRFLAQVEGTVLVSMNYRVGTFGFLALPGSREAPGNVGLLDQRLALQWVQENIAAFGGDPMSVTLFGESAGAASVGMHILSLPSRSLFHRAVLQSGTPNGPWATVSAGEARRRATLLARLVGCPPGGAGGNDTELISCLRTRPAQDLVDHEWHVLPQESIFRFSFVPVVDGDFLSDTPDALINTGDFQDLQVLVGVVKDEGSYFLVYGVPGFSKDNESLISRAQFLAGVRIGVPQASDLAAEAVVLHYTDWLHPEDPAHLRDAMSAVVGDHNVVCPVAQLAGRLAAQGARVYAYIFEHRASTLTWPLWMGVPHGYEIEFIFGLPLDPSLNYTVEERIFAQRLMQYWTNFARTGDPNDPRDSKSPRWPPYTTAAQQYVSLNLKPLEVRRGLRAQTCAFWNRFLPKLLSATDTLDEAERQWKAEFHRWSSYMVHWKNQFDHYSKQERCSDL
Description: In vitro inhibition of acetylcholinesterase, isolated from rat brain.

Acetylcholinesterase [5] = target: T2, Acetylcholinesterase; assay: Inhibitory activity against acetylcholinesterase, isolated from rat brain at 100 uM; No block
Cholinesterase [6] = target: T1, Cholinesterase; assay: Activity against Butyrylcholinesterase (BChE) from human plasma at 100 uM; No block; format: cell-free
Cholinesterase [7] = target: T1, Cholinesterase; assay: Activity against Butyrylcholinesterase (BChE) from human plasma at 100 uM; no block; format: cell-free

T1 sequence (P06276 whole entry): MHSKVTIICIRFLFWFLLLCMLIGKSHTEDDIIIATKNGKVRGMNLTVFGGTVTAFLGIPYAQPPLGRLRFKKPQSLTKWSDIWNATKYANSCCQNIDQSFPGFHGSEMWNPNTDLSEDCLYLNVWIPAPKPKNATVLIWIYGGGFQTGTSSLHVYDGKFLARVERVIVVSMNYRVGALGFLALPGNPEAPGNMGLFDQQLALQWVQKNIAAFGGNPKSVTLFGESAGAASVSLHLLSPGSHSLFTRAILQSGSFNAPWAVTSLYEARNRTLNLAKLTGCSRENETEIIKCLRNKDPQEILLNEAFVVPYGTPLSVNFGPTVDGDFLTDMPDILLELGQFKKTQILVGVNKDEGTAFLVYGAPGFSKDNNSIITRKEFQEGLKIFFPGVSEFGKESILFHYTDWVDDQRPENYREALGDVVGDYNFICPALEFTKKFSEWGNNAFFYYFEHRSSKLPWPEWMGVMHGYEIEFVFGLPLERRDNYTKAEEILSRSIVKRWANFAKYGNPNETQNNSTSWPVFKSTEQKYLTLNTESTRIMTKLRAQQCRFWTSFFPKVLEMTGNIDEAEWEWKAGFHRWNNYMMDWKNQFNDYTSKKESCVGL
Chain of Sodium-dependent serotonin transporter (P31652 whole entry): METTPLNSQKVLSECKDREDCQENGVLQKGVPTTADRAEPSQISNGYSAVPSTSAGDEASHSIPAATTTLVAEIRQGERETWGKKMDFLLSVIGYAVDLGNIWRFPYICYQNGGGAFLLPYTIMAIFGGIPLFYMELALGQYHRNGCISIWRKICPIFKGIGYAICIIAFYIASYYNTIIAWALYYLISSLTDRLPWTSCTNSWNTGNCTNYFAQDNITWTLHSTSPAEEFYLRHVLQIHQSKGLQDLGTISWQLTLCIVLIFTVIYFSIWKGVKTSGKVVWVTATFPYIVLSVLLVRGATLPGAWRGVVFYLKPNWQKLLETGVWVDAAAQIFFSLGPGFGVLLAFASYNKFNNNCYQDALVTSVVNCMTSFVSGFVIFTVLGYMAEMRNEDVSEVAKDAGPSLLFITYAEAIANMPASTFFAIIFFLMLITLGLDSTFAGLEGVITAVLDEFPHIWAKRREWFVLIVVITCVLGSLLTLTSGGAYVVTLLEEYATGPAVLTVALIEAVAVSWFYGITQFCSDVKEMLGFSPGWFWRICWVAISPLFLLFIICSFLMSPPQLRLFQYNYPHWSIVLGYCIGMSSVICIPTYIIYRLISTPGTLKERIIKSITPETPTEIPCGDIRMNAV
Chain of Norepinephrine transporter (Q9WTR4 whole entry): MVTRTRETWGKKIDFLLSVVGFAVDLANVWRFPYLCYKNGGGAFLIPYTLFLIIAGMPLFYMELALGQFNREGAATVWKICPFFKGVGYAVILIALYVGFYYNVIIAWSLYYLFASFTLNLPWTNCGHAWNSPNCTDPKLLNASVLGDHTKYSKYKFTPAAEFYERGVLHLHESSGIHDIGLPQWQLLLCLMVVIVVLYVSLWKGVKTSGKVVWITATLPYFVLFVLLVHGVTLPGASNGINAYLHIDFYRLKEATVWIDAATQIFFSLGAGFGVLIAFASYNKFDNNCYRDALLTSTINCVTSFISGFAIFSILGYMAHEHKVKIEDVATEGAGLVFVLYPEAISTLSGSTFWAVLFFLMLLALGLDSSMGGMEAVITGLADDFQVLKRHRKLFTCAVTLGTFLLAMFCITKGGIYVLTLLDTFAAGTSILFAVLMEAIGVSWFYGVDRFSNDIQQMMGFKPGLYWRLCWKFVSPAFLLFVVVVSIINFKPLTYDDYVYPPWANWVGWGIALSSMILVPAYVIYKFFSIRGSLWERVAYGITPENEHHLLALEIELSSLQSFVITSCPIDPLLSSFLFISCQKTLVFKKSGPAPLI

Structure (SMILES)	IC50 (Cholinesterase [1])	IC50 [2]	IC50 [3]	IC50 (Acetylcholinesterase [4])	IC50 (Acetylcholinesterase [5])	IC50 (Cholinesterase [6])	IC50 (Cholinesterase [7])
Nc1c2c(nc3ccccc13)-c1ccccc1NCC2	18.9 µM	3 µM	4.2 µM	69.4 µM	–	–	–
Nc1c2c(nc3ccccc13)C1CCC2C1 (centres undefined)	0.041 µM	6.1 µM	0.2 µM	–	–	–	–
CCCCC1=C(C)Cc2c1nc1ccccc1c2N	42 µM	–	13 µM	25 µM	–	–	–
Nc1c2c(nc3ccccc13)CCCCCC2	2.3 µM	0.8 µM	1.1 µM	–	–	–	–
Nc1c2c(nc3ccccc13)CCCc1ccccc1-2	26.4 µM	–	0.02 µM	–	–	–	–
CC1Cc2c(nc3ccccc3c2N)C1(C)O (centres undefined)	12.2 µM	–	4.4 µM	134 µM	–	–	–
Nc1c2ccccc2nc2c1cnc1cc(Cl)ccc12	–	0.2 µM	> 95 µM	–	No block	No block	–
CC1=C(C)c2nc3ccccc3c(N)c2C1	5.9 µM	–	5.1 µM	3.5 µM	–	–	–
CC12CCC(c3c1nc1ccccc1c3N)C2(C)C (centres undefined)	88 µM	–	13 µM	110 µM	–	–	–
COc1ccc2c(c1)CCc1c-2nc2ccccc2c1N	–	1.4 µM	5.8 µM	47.5 µM	–	–	no block
Nc1c2c(nc3ccccc13)CCCCC2	0.014 µM	6.9 µM	3.6 µM	0.039 µM	–	–	–
Nc1c2c(nc3ccccc13)-c1ccccc1NCCC2	6.7 µM	2.5 µM	6.9 µM	391 µM	–	–	–
Nc1c2c(nc3ccccc13)CCC2	0.052 µM	0.6 µM	21 µM	–	–	–	–
CCCCC1(O)c2nc3ccccc3c(N)c2CC1C (centres undefined)	81 µM	12 µM	7.1 µM	91 µM	–	–	–
COc1ccc2c(c1)CCCc1c-2nc2ccccc2c1N	> 100 µM	3.6 µM	0.7 µM	–	–	–	–
Nc1c2c(nc3ccccc13)-c1cccc(Cl)c1CC2	10.3 µM	41 µM	14.3 µM	144 µM	–	–	–
Nc1c2c(nc3ccccc13)-c1ccccc1CC2	3.3 µM	12.1 µM	4.6 µM	–	–	–	–
Nc1c2c(nc3ccccc13)-c1ccccc1C2	3.1 µM	2.3 µM	2.2 µM	–	–	–	–
Nc1c2c(nc3ccccc13)-c1ccccc1CCC2	36 µM	1.8 µM	4.7 µM	166 µM	–	–	–
